Publication PMC6511062, “Preclinical candidate for the treatment of visceral leishmaniasis that acts through proteasome inhibition” (Proceedings of the National Academy of Sciences of the …, 2019)
In brackets after ≈: the same amount, converted by molar mass. Entries after “also recorded” stand apart in the source; their conditions may differ. Where two headings read alike, the source gives them in different places.

Key:
WP2 uvrA (pKM101) = experiment: Ames test, strain WP2 uvrA (pKM101); details: with S9-mix, dose level 10 per plate, positive control
Experimental: (§1) oxidative metabolism system (S9-mix). The maximum concentration tested and […]
(§2) Compound 7a was tested in a bacterial mutation screening assay (Ames test) with Salmonella typhimurium TA1535, TA1537, TA98, TA100 and Escherichia coli WP2uvrA(pKM101) in the presence and absence of an exogenous mammalian […]
(§3) The bacterial mutation screening assay was a plate incorporation test carried out as previously described15 and according to current methodology. […]

TA1537 = experiment: Ames test, strain TA1537
Experimental: as §1, §2, §3

TA100 = details: positive control
Experimental: as §1, §2, §3

TA1535 = details: positive control
Experimental: as §1, §2, §3

TA98 = experiment: Ames test, strain TA98; details: without S9-mix, dose level 1 per plate, positive control
Experimental: as §1, §2, §3

[1] = Intrinsic clearance in mouse liver microsomes; assay type: in vitro ADME
Experimental: page 13: 4. Parasite assays T. cruzi4, Leishmania donovani axenic amastigote, cidal axenic amastigote and intra- macrophage drug sensitivity assays were conducted as previously described5,6. a. […] Instead of a single readout at 72 h, multiple identical plates were used and read at different time points (24, 48, 72 h). Rate of kill curves showing the luminescence signal at each time point for each concentration were plotted. 5. […] The rate of intrinsic clearance (CLint) of each test compound was then calculated using the following calculation: CLint(mL/min/g liver) = k x V x Microsomal protein yield Where V (mL/mg protein) is the incubation volume/mg protein added and microsomal protein yield is taken as 52.5 mg protein/g liver. Verapamil (0.5 μM) was used as a positive control to confirm acceptable assay performance. 6. Pharmacokinetic studies. a. Mouse and dog PK Mouse pharmacokinetic studies were conducted in male CD-1 mice and male beagle dogs. 3 animals per group were used for each study performed. A dose of 3 mg/kg was administered intravenously, in a bolus form to mice and infused over a 30 min period to dogs. For all the intravenous studies compound were dissolved in 5% DMSO/20% kleptose in saline. A dose of 10 mg/kg was orally administered by gavage to the two species in a suspension of 1% methylcellulose to investigate oral pharmacokinetics. S13

[2] = system: L. donovani intramacrophage amastigotes; experiment: L. donovani intramacrophage assay (amastigotes in differentiated THP-1 cells); assay type: cell-based, Leishmania donovani; details: for EC50: Leishmania donovani, L. donovani amastigotes in differentiated THP-1 cells, read-out: Intramacrophage EC50
Experimental: T. cruzi4, Leishmania donovani axenic amastigote, cidal axenic amastigote and intra-
macrophage drug sensitivity assays were conducted as previously described5,6. […]
5. Intrinsic clearance (CLint) […]
6. Pharmacokinetic studies. […]

[3] = CAD (charged aerosol detector) solubility
THP-1 cells = experiment: Mammalian cell growth inhibition (THP-1); assay type: cell-based; details: Homo sapiens
Text: We hypothesized that, in view of their structural similarity, 1 and 2 probably shared the same mechanism of action.

[4] = Solubility in fasted simulated intestinal fluid (FaSSIF); details: for FaSSIF solubility: fasted simulated intestinal fluid; for solubility: fasted simulated intestinal fluid (FaSSIF), fassif
[5] = system: Salmonella typhimurium TA1535, TA1537, TA98, TA100 and Escherichia coli WP2uvrA(pKM101); experiment: Bacterial mutation screening assay (Ames test), overall outcome; assay type: cell-based; details: presence and absence of S9-mix
Experimental: i. Bacterial Mutation (Ames) Assay
Compound 6 was tested in a bacterial mutation screening assay (Ames test) with Salmonella typhimurium TA1535, TA1537, TA98, TA100 and Escherichia coli WP2uvrA(pKM101) in the presence and absence of an exogenous mammalian oxidative metabolism system (S9-mix). The maximum concentration tested and […]
Compound 6a was tested in a bacterial mutation screening assay (Ames test) with […]
Compound 7a was tested in a bacterial mutation screening assay (Ames test) with […]
as §3

mouse lymphoma cells = experiment: Mouse lymphoma assay; details: for MF (Mutation Frequency) / RTG (Relative Total Growth): positive control
Experimental: oxidative metabolism system (S9-mix). […]
The maximum […]
concentrations analysed were 410.45 µg/mL (1 mM, the maximum concentration in accordance with current guidelines and 100 µg/mL (limited by toxicity), for the 3 and […]
The mouse lymphoma screen was carried out using test methodology based on established procedures for in vitro gene mutation testing17,18,19,20. […]

[6] = system: L. donovani promastigotes; experiment: microbe, parasite or virus in culture; assay type: cell-based, Leishmania donovani; details: read-out: EC50
Experimental: 9. Mode of action studies a. Cell lines and culture conditions […]
c. Generation of drug-resistant parasites […]
donovani in the continuous presence of this compound. Starting at a sub-lethal […]
After a total of 120 days in
Genomic DNA was harvested from three independently generated L. donovani resistant clones and an age match control, as previously described27. PCR was performed using Platinum PCR Supermix (Invitrogen), as per manufacturer’s […]
generated using primers SubunitB4FW and SubunitB4RV, then sequenced using primer SubunitB4FW (Table S6). To sequence the β5 subunit (LdBPK_361730.1), an […]
sequenced using primer SubunitB5FW. PCR amplification and DNA sequencing were performed in triplicate for each independently generated cell line. The Leishmania donovani BPK282A1 sequences of the two subunits were identified in TriTrypDB and […]
e. Generation of overexpression constructs and LdBOB transgenic cell lines The genes encoding the mutated versions of the β4 (LdBPK_360340.1) and the β5 […]
parasites, were synthesised (GeneArt, Thermo Fischer Scientific). The synthetic genes, flanked by BamHI sites were cloned into the equivalent site of pIR1-SAT. The accuracy of all assembled constructs was verified by sequencing.
Mid-log-phase L. donovani promastigotes (LdBOB) were transfected with overexpression constructs using the Human T-Cell Nucleofector kit and the Amaxa Nucleofector electroporator (program V-033). Following transfection, cells were […]
to appropriate drug selection (100 µg/mL nourseothricin). Cloned cell lines were […]
selection for one passage prior to experiments. […]

[7] = system: chymotrypsin-like activity of the L. donovani proteasome; experiment: biochemical; parameters: species or system Leishmania donovani; details: lysates from RES II and WT parasites
Experimental: An in vitro assay was developed that enabled the chymotrypsin-like activity and additional proteolytic activities associated with the proteasome to be directly monitored within proteasome-enriched parasite cell lysates. Likewise, human proteasome from two sources (i.e., commercially pure 26S and enriched proteasome fractions from THP-1 lysates) was tested using the same biochemical assays.
Proteasome enrichment by ultracentrifugation
The protocol described by Kisselev et al.34 was adapted to enrich the proteasomes present in L. donovani and THP1 crude extracts. L. donovani or THP1 cells were resuspended in sucrose buffer (50 mM Tris buffer pH 7.5, 5 mM Magnesium chloride, 1 mM EDTA, 50 mM NaCl, 250 mM sucrose, 2 mM ATP, 1 mM DTT) and lysed by nitrogen cavitation for 15 min (110 bars of 1500 psi). Lysates were centrifuged at 20,000g for 30 min at 4 °C and supernatants containing soluble protein were subjected to an ultracentrifugation step at 300,000g for 2h at 4 °C. The resulting proteasome-containing pellets were resuspended in sucrose buffer and left on ice for 30 min to complete solubilization. Samples were centrifuged for 10 min at 20,000 g to remove insoluble material. Proteins contained in supernatant (proteasome enriched fraction) were measured by Bradford.
Proteasome activity assays
Compounds were dispensed into black 384-well assay plates (Greiner) by acoustic dispensing (LabCyte ECHO). For potency determinations, eleven-point, one in three dilution curves were generated, with a top concentration of 100 µM. Three proteasome activities were measured using a commercially available indirect enzyme-based luminescent assay kit (Promega) with Suc-LLVY-aminoluciferin, Z-LRR-aminoluciferin and Z-nLPnLD-aminoluciferin used as substrates for chymotrypsin-like, trypsin-like and caspase-like activities, respectively. In addition to proteasome samples: L. donovani and THP1-enriched proteasomes, commercially available human purified 26S proteasome (Boston Biochem) was also assessed.

[8] = with S9-mix, dose level 5 per plate, positive control
[9] = with S9-mix, dose level 5 per plate
[10] = without S9-mix, dose level 50 per plate
[11] = without S9-mix, dose level 2 per plate

Compound: Nc1ccc2cc3ccccc3cc2c1 [Compound 2-AAN, 2-Aminoanthracene, reference compound]
- Mean revertants per plate (WP2 uvrA (pKM101)): 1650.5
- Ratio treated / solvent (WP2 uvrA (pKM101)): 11.1
- Mean revertants per plate (TA1537; [8]): 153.0
- Ratio treated / solvent (TA1537; [8]): 6.7
- Mean revertants per plate (TA100; [9]): 4441.0
- Ratio treated / solvent (TA100; [9]): 33.6
- Mean revertants per plate (TA1535; [9]): 490.5
- Ratio treated / solvent (TA1535; [9]): 31.6

Compound: O=[N+]([O-])c1ccc2c(c1)Cc1ccccc1-2 [Compound 2NF, 2-Nitrofluorene, reference compound]
- Mean revertants per plate (TA98): 417.5
- Ratio treated / solvent (TA98): 20.5

Compound: CCOc1cnc2nc(-c3cccc(NC(=O)c4ccco4)c3)cn2c1 [Compound 3]
- CLint [1]: 1.8 mL/min/g
- CLint (intrinsic clearance when incubated with mouse liver microsomes) [1]: 1.8 mL/min per gram
- EC50 [2]: 4.2 µM
- solubility [3]: 7 µg/mL (≈ 20.1 µM)
- EC50 (THP-1 cells): > 50 µM

Compound: CCOc1cnc2nc(-c3cccc(NC(=O)N4CCCC4)c3)cn2c1 [Compound 4]
- CLint [1]: 0.59 mL/min/g
- CLint (intrinsic clearance when incubated with mouse liver microsomes) [1]: 0.59 mL/min per gram
- EC50 [2]: 3.3 µM
- solubility [3]: 7 µg/mL (≈ 19.9 µM)
- EC50 (THP-1 cells): > 50 µM

Compound: O=C(Nc1cccc(-c2cn3cc(N4CCOCC4)cnc3n2)c1)N1CCCC1 [Compound 5]
- CLint [1]: 0.76 mL/min/g
- CLint (intrinsic clearance when incubated with mouse liver microsomes) [1]: 0.76 mL/min per gram
- EC50 [2]: 8.2 µM
- solubility [3]: 43 µg/mL (≈ 110 µM)
- EC50 (THP-1 cells): > 50 µM

Compound: O=C(Nc1ccc(F)c(-c2cn3cc(-c4ccccc4)cnc3n2)c1)N1CCCC1 [Compound 6]
- CLint [1]: 2.6 mL/min/g
- EC50 [2]: 0.15 µM
- FaSSIF solubility [4]: poor solubility
- solubility [4]: 4 µg/mL (≈ 9.96 µM)
- solubility [3]: 8 µg/mL (≈ 19.9 µM)
- EC50 (THP-1 cells): > 50 µM
- AMES [5]: not mutagenic; also recorded: negative

Compound: O=C(Nc1ccc(F)c(-c2cn3cc(N4CCOCC4)cnc3n2)c1)N1CCCC1 [Compound 6a]
- CLint [1]: < 0.5 mL/min/g
- EC50 [2]: 0.6 µM
- improvement of intramacrophage potency ([2]; relative to 5): > 10 fold
- FaSSIF solubility [4]: poor solubility
- solubility [4]: 6 µg/mL (≈ 14.6 µM)
- solubility [3]: 39 µg/mL (≈ 95 µM)
- EC50 (THP-1 cells): > 50 µM
- AMES [5]: mutagenic in strain TA1537 when tested in the absence of S9-mix; also recorded: positive

Compound: Nc1c2ccccc2nc2ccccc12 [Compound 9-AAC, 9-Amino Acridine, reference compound]
- Mean revertants per plate (TA1537; [10]): 249.5
- Ratio treated / solvent (TA1537; [10]): 17.4

Compound: Cc1c2ccccc2c(C)c2c1ccc1ccccc12 [DMBA, 7,12-dimethylbenz[a]anthracene, reference compound]
- Positive / Negative (mouse lymphoma cells; 3 hour +S9 treatment): Positive
- MF (Mutation Frequency) (mouse lymphoma cells; 3 hour +S9 treatment): 1783.48 ×10-6
- RTG (Relative Total Growth) (mouse lymphoma cells; 3 hour +S9 treatment): 28%

Compound: Cc1nc(C)c(C(=O)Nc2ccc(F)c(-c3nc4ncc(-c5ccccn5)cn4n3)c2)o1 [GNF6702, reference compound]
- EC50 ([6]; RES I (compound 7-resistant clone)): 0.527 ± 0.012 µM
- EC50 ([6]; RES III (compound 7-resistant clone)): 0.768 ± 0.038 µM
- EC50 ([6]; WT promastigotes): 0.0018 ± 2e-06 µM

Compound: COS(C)(=O)=O [MMS, methylmethansulfonate, reference compound]
- Positive / Negative (mouse lymphoma cells; 24 hour -S9 treatment): Positive
- MF (Mutation Frequency) (mouse lymphoma cells; 24 hour -S9 treatment): 938.58 ×10-6
- RTG (Relative Total Growth) (mouse lymphoma cells; 24 hour -S9 treatment): 73%

Compound: [N-]=[N+]=[N-].[Na+] [NaN3, Sodium Azide, reference compound]
- Mean revertants per plate (TA100; [11]): 1050.0
- Ratio treated / solvent (TA100; [11]): 10.1
- Mean revertants per plate (TA1535; [11]): 1128.5
- Ratio treated / solvent (TA1535; [11]): 44.5

Compound: CC(C)C[C@H](NC(=O)[C@H](CCc1ccccc1)NC(=O)CN1CCOCC1)C(=O)N[C@@H](Cc1ccccc1)C(=O)N[C@@H](CC(C)C)C(=O)[C@@]1(C)CO1 [carfilzomib, reference compound]
- inhibition of chymotrypsin-like activity, RES II vs WT lysates [7]: equal potency
